Measured values reported in patent US10722530B2, “Methods of diagnosing and treating cancer” (CASE WESTERN RESERVE UNIVERSITY, priority 2016, dated 2020).
Like-named read-outs stand apart in the source and are kept apart here.

Key:
DLD1 colon cancer cells = conditions: for effect of UDG depletion on drug sensitivity: DLD1 shUDG vs shSCR
Method: UDG knockdown was performed via shRNA transduction with validated clone from Sigma-Aldrich. […] A non-targeted scramble control shRNA clone (Sigma-Aldrich) was also used. Transfection of shRNA clones was performed according to manufacturer's specifications from Lipofectamine 2000 (Invitrogen). Lentiviral particles were produced via HEK293 cells, and targeted cells were infected and selected with puromycin. The stable UDG knockdown levels were verified for q-PCR and western blot analysis.
Colonies were stained with methylene blue, and only colonies containing ≥50 cells were counted. The percentage of survival was determined relative to untreated control averaged over 3 independent experiments.

[1] = system: HEC1A endometrial cancer cells; experiment: Colony survival assay, shSCR and shUDG cells; assay type: cell-based, human; conditions: HEC1A shUDG vs shSCR
Method: UDG knockdown was performed via shRNA transduction with validated clone from Sigma-Aldrich. The ID of UDG shRNA clone is NM_003362.2-656s21c1. A non-targeted scramble control shRNA clone (Sigma-Aldrich) was also used. Transfection of shRNA clones was performed according to manufacturer's specifications from Lipofectamine 2000 (Invitrogen). Lentiviral particles were produced via HEK293 cells, and targeted cells were infected and selected with puromycin. The stable UDG knockdown levels were verified for q-PCR and western blot analysis.
DLD1 (200 cells/well) or HEC1A (300 cells/well) cells were plated in 6-well culture dishes and allowed to adhere for 16 h. Cells were treated with drug for 24 h, gently washed twice with 1×PBS, and incubated with fresh media for at least 10 days to allow individual colonies to form. Colonies were stained with methylene blue, and only colonies containing ≥50 cells were counted. The percentage of survival was determined relative to untreated control averaged over 3 independent experiments.

γH2AX foci in DLD1 cells = experiment: γH2AX foci immunofluorescence staining; assay type: cell-based, human; conditions: 10 μM Q-VD-OPh with 50 nM 5-FdU, DLD1 shSCR or shUDG
Method: (§1) Cells cultured on glass coverslips were treated with 5-FdU in the presence or absence of 10 μM caspase inhibitor Q-VD-OPH (BioVision Inc). Cells were fixed in 3.7% formaldehyde for 10 minutes, blocked with PBS containing 10% FBS and 0.1% Triton X-100 for 20 minutes, washed with PBS three times, and incubated with primary anti-γH2AX antibody (Millipore, dilution: 1:150) in PBS containing 0.1% Triton X-100 at 4° C. overnight. The cells were then washed with PBS three times, incubated with secondary antibodies (Alexa Fluor 594, Life Technologies; dilution: 1:400) in PBS containing 0.1% Triton X-100 for 1 h, and washed with PBS three times. The slides were mounted with antifade solution with DAPI (Cell Signaling) and visualized on a Leica laser microscope.

[2] = system: γH2AX foci in HEC1A cells; experiment: γH2AX foci immunofluorescence staining; assay type: cell-based, human; conditions: 10 μM Q-VD-OPh with 50 nM 5-FdU, HEC1A shSCR or shUDG
Method: as §1

[3] = system: cleaved PARP in DLD1 cells; experiment: Western blot of cleaved PARP; assay type: cell-based, human; conditions: 10 μM Q-VD-OPh, 50 nM 5-FdU, DLD1 shSCR and shUDG
Method: (§2) Western blots were performed as described in Yan et al. (Clin Cancer Res. (2007) 13:1532-39). Antibodies used were as follows: Anti-UDG (FL-313) (Santa Cruz Biotechnology), anti-Cleaved PARP (Asp214)(19F4) (Cell Signaling), and anti-α-Tubulin (Calbiochem).

[4] = system: cleaved PARP in HEC1A cells; experiment: Western blot of cleaved PARP; assay type: cell-based, human; conditions: 10 μM Q-VD-OPh, 50 nM 5-FdU, HEC1A shSCR and shUDG
Method: as §2

From the text for HCT116 p53 KO cells: (§3) p53 or UDG knockdown was achieved via shRNA transduction. Lentiviral vectors LV-THM-shp53 (which also expresses a GFP reporter) or LV-Bleo-shp53 to perform p53 KD in WT HCT116 cells were obtained from Case Western Reserve University, Cleveland, Ohio Lentiviral vector targeting GFP (sh-GFP) was used as control. UDG shRNA vectors (shUDG: NM_003362.2-656s21c1, shUDG-2: NM_003362.2-758s21c1, and shUDG-3: NM_003362.2-893s21c1) were purchased from Sigma, and a scramble targeting shRNA vector (Sigma) was used as paired control. The lentiviral production and infection were performed as previously described. Cells stably infected with LV-THM-p53 were isolated by cell sorting on the basis of their GFP expression.
(§4) Cancer cells (200-300 cells/well) were seeded in 6-well culture dishes and allowed to adhere overnight. For 5-FdU, cells were treated for 24 h, then gently washed with PBS, and incubated with fresh media for at least 10 days to allow individual colonies to form. […] After 10-18 days, the plates were stained with methylene blue. Colonies containing ≥50 cells were counted. The percentage of survival was determined relative to untreated control averaged over 3 independent experiments.
From the text for HCT116 p53 WT cells: as §3, §4

## O=c1[nH]cc(F)c(=O)[nH]1 [5-FU, 5-Fluorouracil]
HCT116 p53 KO cells; HCT116 p53 KO, shUDG vs shSCR
  effect of UDG depletion on cytotoxicity: only moderately sensitized
HCT116 p53 WT cells; HCT116 p53 WT, shUDG vs shSCR
  effect of UDG depletion on cytotoxicity: no significant survival differences

## Cc1cn([C@H]2C[C@H](O)[C@@H](CO)O2)c(=O)[nH]c1=O [thymidine]
DLD1 colon cancer cells; 20 μM thymidine 24 h after 5-FdU, UDG depleted cells
  rescue of 5-FdU cell death by thymidine given 24 h after: barely inhibited cell death
DLD1 colon cancer cells; 20 μM thymidine simultaneously with 0 to 200 nM 5-FdU, shSCR or shUDG
  cell killing by 5-FdU with simultaneous thymidine: almost no killing

## Nc1nc2[nH]cc(CCc3ccc(C(=O)N[C@@H](CCC(=O)O)C(=O)O)cc3)c2c(=O)[nH]1 [pemetrexed]
[1]
  effect of UDG depletion on drug sensitivity: sensitization was also observed
HCT116 p53 KO cells
  effect of UDG depletion on cytotoxicity: sensitized
DLD1 colon cancer cells
  effect of UDG depletion on drug sensitivity: sensitization was also observed
HCT116 p53 WT cells
  effect of UDG depletion on cytotoxicity: no significant survival differences

## COc1cccc2c1C(=O)c1c(O)c3c(c(O)c1C2=O)C[C@@](O)(C(=O)CO)C[C@@H]3O[C@H]1C[C@H](N)[C@H](O)[C@H](C)O1 [doxorubicin]
[1]
  effect of UDG depletion on drug sensitivity: no further sensitivity
DLD1 colon cancer cells
  effect of UDG depletion on drug sensitivity: no further sensitivity

## N.N.[Cl][Pt][Cl] [cisplatin, cis-diamminedichloroplatinum II]
[1]
  effect of UDG depletion on drug sensitivity: no further sensitivity
DLD1 colon cancer cells
  effect of UDG depletion on drug sensitivity: no further sensitivity

## CC(C)[C@H](NC(=O)c1ccc2ccccc2n1)C(=O)N[C@@H](CC(=O)O)C(=O)COc1c(F)cccc1F [Q-VD-OPh]
γH2AX foci in DLD1 cells
  γH2AX foci, Q-VD-OPh treated vs non-treated: essentially the same
[2]
  γH2AX foci, Q-VD-OPh treated vs non-treated: essentially the same
[3]
  cleaved PARP induced by 5-FdU in presence of Q-VD-OPh: almost completely blocked
[4]
  cleaved PARP induced by 5-FdU in presence of Q-VD-OPh: almost completely blocked
